Results on 19 compounds are retold here after patent US20020061839A1, “Serine peptidase modulators” (priority 1998, published 2002).

Counter-ions that a name gives are not always drawn. Like-named read-outs stand apart in the source and are kept apart here.

One data set deals with T1, Prolyl oligopeptidase (Homo sapiens, UniProt P48147).
T1 construct: Prolyl oligopeptidase was purified from human platelets; from tissue; host or cells: human platelets
T1 sequence (P48147 1-710): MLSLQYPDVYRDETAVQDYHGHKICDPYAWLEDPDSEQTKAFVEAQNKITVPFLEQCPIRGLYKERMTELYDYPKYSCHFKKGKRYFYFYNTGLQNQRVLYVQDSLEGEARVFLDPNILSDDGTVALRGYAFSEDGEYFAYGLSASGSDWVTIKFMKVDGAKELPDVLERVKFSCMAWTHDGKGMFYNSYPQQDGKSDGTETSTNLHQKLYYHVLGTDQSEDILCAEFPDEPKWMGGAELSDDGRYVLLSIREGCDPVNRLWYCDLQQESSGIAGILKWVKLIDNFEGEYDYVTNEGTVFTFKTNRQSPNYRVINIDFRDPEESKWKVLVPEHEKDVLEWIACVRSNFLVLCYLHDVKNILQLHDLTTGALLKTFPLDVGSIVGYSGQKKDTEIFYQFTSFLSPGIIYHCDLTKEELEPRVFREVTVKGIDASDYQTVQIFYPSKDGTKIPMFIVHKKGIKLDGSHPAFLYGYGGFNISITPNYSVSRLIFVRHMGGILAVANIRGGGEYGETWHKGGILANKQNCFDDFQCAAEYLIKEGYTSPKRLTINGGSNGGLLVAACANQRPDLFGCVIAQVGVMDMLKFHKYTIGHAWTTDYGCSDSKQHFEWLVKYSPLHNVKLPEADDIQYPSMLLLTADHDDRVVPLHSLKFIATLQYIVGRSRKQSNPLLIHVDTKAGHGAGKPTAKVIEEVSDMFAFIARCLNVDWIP
In words: Inhibition of prolyl oligopeptidase (PO), Z-Gly-Pro-AMC substrate. To be noted: PO from human platelets, 20 min at 37° C. The data set is classed as biochemical. The protocol: Prolyl oligopeptidase was purified from human platelets and the enzyme activity was measured using Z—Gly—Pro—AMC (4.4 mM) as the substrate in a K-phosphate buffer 100 mM, pH 7.5 containing 1 EM EDTA, 1 mM dithiothreitol and 1 mM NaN3. The incubation was carried out during 20 min at 37° C. The reaction was stopped by the addition of 5 volumes 1.5 M acetic acid. Fluorescence was measured at 370 and 440 nm as excitation and emission wavelengths respectively. The inhibitors were added at concentrations varying between 1 μM and 1 mM.

A further data set in a line: in vitro. To be noted: human, plasma.
The next data set has as its target T2, DPP IV (Homo sapiens, UniProt P27487).
T2 construct: DPP IV was purified from human seminal plasma as described previously; from tissue; host or cells: human seminal plasma
In words: biochemical. The data set is classed as biochemical. The conditions noted are these: for kinact/KI: 0.25 h, pH 8.3, read-out: kcalc (second order rate constant of inactivation). Here is the method: Enzymatic activity was measured at 37° C. in a Spectramax 340 (Molecular Devices) microtiterplate reader using Gly—Pro-p-nitroanilide (Sigma) as a chromogenic substrate. […] The reaction mixture contained 2 mM substrate, approximately 1 mU of DPP IV, 40 EM TRIS-HCl buffer, pH 8.3, and a suitable amount of inhibitor (ranging between 0 an 10 mM) in a total volume of 0.2 ml. Activity measurements were routinely performed in duplicate.
Stock solutions were diluted with 50 mM TRIS-HCl buffer, pH 8.3, as required, immediately before the experiment. […] For a simple pseudo-first order inactivation process, the activity after incubation with inhibitor (vi) varies with the inhibitor concentration (i) as described in the following equation: vi=vo * e-k.i.t, where vo is the activity in absence of inhibitor, k is the second order rate constant of inactivation and t is the time.

Where [1] appears, read: 15 min pre-incubation with DPP IV at 37° C., average ± standard deviation.

T2 sequence (P27487 whole entry): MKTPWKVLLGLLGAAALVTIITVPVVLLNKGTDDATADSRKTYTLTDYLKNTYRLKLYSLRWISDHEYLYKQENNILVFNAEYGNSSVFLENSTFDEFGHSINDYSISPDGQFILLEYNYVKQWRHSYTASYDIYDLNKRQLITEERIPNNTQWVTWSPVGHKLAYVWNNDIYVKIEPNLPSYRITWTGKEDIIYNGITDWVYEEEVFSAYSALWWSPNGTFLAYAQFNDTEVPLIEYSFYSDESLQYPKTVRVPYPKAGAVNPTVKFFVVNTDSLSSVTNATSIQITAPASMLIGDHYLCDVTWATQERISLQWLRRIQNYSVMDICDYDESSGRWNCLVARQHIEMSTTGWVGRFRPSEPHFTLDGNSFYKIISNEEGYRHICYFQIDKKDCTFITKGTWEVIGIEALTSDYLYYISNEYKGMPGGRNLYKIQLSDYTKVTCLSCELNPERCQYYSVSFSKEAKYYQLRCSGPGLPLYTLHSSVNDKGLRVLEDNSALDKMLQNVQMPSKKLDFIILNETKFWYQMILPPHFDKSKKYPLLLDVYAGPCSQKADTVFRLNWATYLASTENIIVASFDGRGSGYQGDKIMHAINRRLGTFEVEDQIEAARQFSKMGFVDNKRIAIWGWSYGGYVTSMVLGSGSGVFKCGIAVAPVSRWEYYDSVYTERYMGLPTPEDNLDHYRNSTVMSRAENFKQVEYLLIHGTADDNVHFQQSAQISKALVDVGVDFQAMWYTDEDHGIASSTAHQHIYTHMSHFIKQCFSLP

`CC(=O)Nc1cccc(OP(=O)(Oc2cccc(NC(C)=O)c2)C2CCCN2C(=O)[C@@H]2CCCN2C(=O)OCc2ccccc2)c1` (mixture of isomers) [10d, Di(3-acetamidophenyl) 1-(benzyloxycarbonyl-(S)-prolyl)-pyrrolidine-2(R,S)-phosphonate]: 10 µM corresponded to half-maximal inhibition on Prolyl oligopeptidase (IC50).

In turn, `CC(=O)Nc1ccc(OP(=O)(Oc2ccc(NC(C)=O)cc2)C2CCCN2C(=O)[C@@H]2CCCN2C(=O)OCc2ccccc2)cc1` (mixture of isomers) [10e, Di(4-acetamidophenyl) 1-(benzyloxycarbonyl-(S)-prolyl)-pyrrolidine-2(R,S)-phosphonate] came in with an IC50 on Prolyl oligopeptidase of 21 µM.

`CS(=O)(=O)Nc1ccc(OP(=O)(Oc2ccc(NS(C)(=O)=O)cc2)C2CCCN2C(=O)[C@@H]2CCCN2C(=O)OCc2ccccc2)cc1` (mixture of isomers) [10f, Di(4-methylsulfonylaminophenyl) 1-(benzyloxycarbonyl-(S)-prolyl)pyrrolidine-2(R,S)-phosphonate] returned an IC50 against Prolyl oligopeptidase of 10 µM.

At Prolyl oligopeptidase, `O=C(CNC(=O)c1ccccc1)Nc1ccc(OP(=O)(Oc2ccc(NC(=O)CNC(=O)c3ccccc3)cc2)C2CCCN2C(=O)[C@@H]2CCCN2C(=O)OCc2ccccc2)cc1` (mixture of isomers) [10h, Di[4-(N-benzoylglycylamino)phenyl]-1-(benzyloxycarbonyl-(S)-prolyl)pyrrolidine-2(R,S)-phosphonate] came in with an IC50 of 12 µM.

`O=C(CNC(=O)OCc1ccccc1)Nc1ccc(OP(=O)(Oc2ccc(NC(=O)CNC(=O)OCc3ccccc3)cc2)C2CCCN2C(=O)[C@@H]2CCCN2C(=O)OCc2ccccc2)cc1` (mixture of isomers) [10i, Di[4-(N-benzyloxycarbonylglycylamino)phenyl]-1-(benzyloxycarbonyl-(S)-prolyl)pyrrolidine-2(R,S)-phosphonate]: the IC50 against Prolyl oligopeptidase stood at 15 µM.

Regarding `COC(=O)[C@H](Cc1ccc(OP(=O)(Oc2ccc(C[C@H](NC(C)=O)C(=O)OC)cc2)C2CCCN2C(=O)[C@@H]2CCCN2C(=O)OCc2ccccc2)cc1)NC(C)=O` (mixture of isomers) [10l, Di{4-[-(S)-(2-methoxycarbonyl-2-acetamido)ethyl]phenyl}1-(benzyloxycarbonyl-(S)-prolyl)pyrrolidine-2(R,S)-phosphonate], the IC50 on Prolyl oligopeptidase came out at 20 µM.

`CCOC(=O)CNC(=O)c1ccc(OP(=O)(Oc2ccc(C(=O)NCC(=O)OCC)cc2)C2CCCN2C(=O)[C@@H]2CCCN2C(=O)OCc2ccccc2)cc1` (mixture of isomers) [10n, Di{4-[(ethoxycarbonyl)methylaminocarbonyl]phenyl}1-(benzyloxycarbonyl-(S)-prolyl)-pyrrolidine-2(R,S)-phosphonate] gave a 50% inhibitory concentration (IC50) against Prolyl oligopeptidase of 5 µM.

`COC(=O)CCNC(=O)c1ccc(OP(=O)(Oc2ccc(C(=O)NCCC(=O)OC)cc2)C2CCCN2C(=O)[C@@H]2CCCN2C(=O)OCc2ccccc2)cc1` (mixture of isomers) [10o, Di{4-[2-(methoxycarbonyl)ethylaminocarbonyl]phenyl}1-(benzyloxycarbonyl-(S)-prolyl)-pyrrolidine-2(R,S)-phosphonate] returned a half-inhibitory concentration (IC50) against Prolyl oligopeptidase of 2.8 µM.

In the case of `CC(=O)Nc1cccc(OP(=O)(Oc2cccc(NC(C)=O)c2)C2CCCN2C(=O)[C@@H]2CCCN2)c1.Cl` (mixture of isomers) [11d, Di(3-acetamidophenyl) 1-((S)-prolyl)pyrrolidine-2(R,S)-phosphonate hydrochloride], the half-life at 1 mM in the data set “in vitro” amounted to 3.67 ± 0.5 h.

With `CS(=O)(=O)Nc1ccc(OP(=O)(Oc2ccc(NS(C)(=O)=O)cc2)C2CCCN2C(=O)[C@@H]2CCCN2)cc1.Cl` (mixture of isomers) [11f, Di(4-methylsulfonylaminophenyl) 1-((S)-prolyl)-pyrrolidine-2(R,S)-phosphonate hydrochloride], at DPP IV (DPP IV inhibition), the “potency compared to the diastereoisomeric mixture 5” value is recorded as “about 100 times”. The same compound showed a half-life at 1 mM in “in vitro” of 2.5 ± 0.5 h.

Consider `NC(=O)Nc1cccc(OP(=O)(Oc2cccc(NC(N)=O)c2)C2CCCN2C(=O)[C@@H]2CCCN2)c1` (mixture of isomers) [11g, Di(3-ureylphenyl) 1-((S)-prolyl)pyrrolidine-2(R,S)-phosphonate hydrochloride], for which the kinact/KI at DPP IV is 330 M⁻¹ s⁻¹. Besides, half-maximal inhibition against DPP IV (setting [1]) (IC50) was put at 2.3 ± 0.3 µM. Besides, the half-life at 1 mM in “in vitro” amounted to 3.5 ± 1.33 h.

The compound `Cl.O=C(CNC(=O)c1ccccc1)Nc1ccc(OP(=O)(Oc2ccc(NC(=O)CNC(=O)c3ccccc3)cc2)C2CCCN2C(=O)[C@@H]2CCCN2)cc1` (mixture of isomers) [11h, Di[4-(N-benzoylglycylamino)phenyl]-1-((S)-prolyl)pyrrolidine-2(R,S)-phosphonate hydrochloride] had a half-life at 1 mM in “in vitro” of 1.55 ± 0.05 h.

In “in vitro”, `Cl.Cl.Cl.NCC(=O)Nc1ccc(OP(=O)(Oc2ccc(NC(=O)CN)cc2)C2CCCN2C(=O)[C@@H]2CCCN2)cc1` (mixture of isomers) [11i, Di[4-(N-glycylamino)phenyl]-1-((S)-prolyl)-pyrrolidine-2(R,S)-phosphonate trihydrochloride] registered a half-life at 1 mM of 0.467 ± 0.05 h.

With `C[C@H](N)C(=O)Nc1ccc(OP(=O)(Oc2ccc(NC(=O)[C@H](C)N)cc2)C2CCCN2C(=O)[C@@H]2CCCN2)cc1` (mixture of isomers) [11j, Di(4-(S)-alanylaminophenyl)-1-((S)-prolyl)pyrrolidine-2(R,S)-phosphonate trihydrochloride], the kinact/KI at DPP IV was 1300 M⁻¹ s⁻¹. This compound also registered an IC50 on DPP IV (setting [1]) of 0.6 ± 0.2 µM. The compound also yielded a half-life at 1 mM in the data set “in vitro” of 0.133 ± 0.0167 h.

For the compound `O=C1CC[C@@H](C(=O)Nc2ccc(OP(=O)(Oc3ccc(NC(=O)[C@@H]4CCC(=O)N4)cc3)C3CCCN3C(=O)[C@@H]3CCCN3)cc2)N1` (mixture of isomers) [11k, Di(4-(S)-pyroglutamylaminophenyl)-1-((S)-prolyl)pyrrolidine-2(R,S)-phosphonate hydrochloride], the kinact/KI on DPP IV was 150 M⁻¹ s⁻¹. Also, the IC50 against DPP IV (setting [1]) is 5 ± 0.8 µM. Also, in the data set “in vitro”, the half-life at 1 mM amounted to 2.83 ± 0.5 h.

Take `COC(=O)CCNC(=O)c1ccc(OP(=O)(Oc2ccc(C(=O)NCCC(=O)OC)cc2)C2CCCN2C(=O)[C@@H]2CCCN2)cc1.Cl` (mixture of isomers) [11o, Di{4-[2-(methoxycarbonyl)ethylaminocarbonyl]phenyl}1-((S)-prolyl)-pyrrolidine-2(R,S)-phosphonate hydrochloride]: in the data set “in vitro”, the half-life at 1 mM came out at 0.433 ± 0.0167 h.

In turn, `CCCNC(=O)c1ccc(OP(=O)(Oc2ccc(C(=O)NCCC)cc2)C2CCCN2C(=O)[C@@H]2CCCN2)cc1.Cl` (mixture of isomers) [11p, Di[4-(n-propylaminocarbonyl)phenyl]1-((S)-prolyl)-pyrrolidine-2(R,S)-phosphonate hydrochloride] registered a half-life at 1 mM in the data set “in vitro” of 0.2 ± 0.0167 h.

Turning to `COP(=O)(Oc1ccccc1-c1ccccc1O)C1CCCN1C(=O)[C@@H]1CCCN1` (mixture of isomers) [compound 18, 2-(2′-Hydroxyphenyl)phenyl methyl 1-(S)-prolyl)-pyrrolidine-2(R,S)-phosphonate hydrochloride], at DPP IV, the IC50 stood at 47 µM and the kinact/KI is 16 M⁻¹ s⁻¹. For the same compound, the half-life at 1 mM in “in vitro” worked out at 2.33 ± 1.33 h.

On to `COC(=O)C(Cc1ccc(OP(=O)(Oc2ccc(CC(NC(C)=O)C(=O)OC)cc2)C2CCCN2C(=O)C2CCCN2)cc1)NC(C)=O` [11l, Di{4-[-(S)-(2-methoxycarbonyl-2-acetamido)ethyl]phenyl}1-((S)-prolyl)pyrrolidine-2-phosphonate hydrochloride], for which, on DPP IV, the IC50 is 1.4 µM and the kinact/KI was 550 M⁻¹ s⁻¹. The half-life at 1 mM in the data set “in vitro” came out at 3.17 ± 2.5 h.

In general, IC50 refers to the point on the concentration scale where inhibition reaches its midpoint. Low values mean inhibition by little substance, high ones a need for much substance. What is called half-life is how long it takes for the measured level to halve. Read a high half-life as slow loss.
